Counter-ions that a name gives are not always drawn.
Experiments:
Type in all cases: physicochemical
[1] = Hygroscopicity assessment by dynamic vapor sorption (DVS); conditions: 25° C.; for Weight Gain under 80% RH: DVS, about 10 mg of sample
Method: Dynamic Vapor Sorption (DVS) is measured via an SMS (Surface Measurement Systems Ltd.) intrinsic DVS. Typical Parameters for DVS test are as follows:
Gas and flow rate: N2, 200 mL/min
RH range: 0% RH to 95% RH
Dynamic vapor sorption (DVS) was applied to test hygroscopicity of Form CS3 with about 10 mg of sample. The DVS plot is substantially as depicted in FIG. 5.
Description and definition of hygroscopicity (Chinese Pharmacopoeia 2015 edition appendix Drug hygroscopic test guidelines, test at 25° C.+/−1° C., 80% RH). • deliquescent: Sufficient water is absorbed to form a liquid; • very hygroscopic: Increase in mass is equal to or greater than 15%; • hygroscopic: Increase in mass is less than 15% and equal to or greater than 2%; • slightly hygroscopic: Increase in mass is less than 2% and equal to or greater than 0.2%. • no or almost no hygroscopic: Increase in mass is less than 0.2%.

[2] = Stability assessment in constant temperature and humidity chambers, crystalline form tested by XRPD; conditions: 2 weeks
Method: Two samples of Form CS3 of ozanimod hydrochloride were placed in constant temperature and humidity chambers at 25° C./60% RH and 40° C./75% RH for 2 weeks. XRPD was used to test the crystalline form. The XRPD overlay pattern is substantially as depicted in FIG. 8 (from top to bottom: XRPD pattern of Form CS3 before and after being stored under 25° C./60% RH and 40° C./75% RH for 2 weeks). […] It can be seen that Form CS3 of ozanimod hydrochloride has good stability, which is benefit for drug storage.

[3] = Particle size distribution test (Microtrac S3500 laser particle size analyzer, wet process)
Method: The particle size distribution test in the present disclosure is acquired by the S3500 laser particle size analyzer of Microtrac. Microtrac S3500 is equipped with the SDC (Sample Delivery Controller). The test is carried out by wet process, and the dispersion medium is Isopar G The parameters are as follow:
Sample of Form CS3 was taken for particle size distribution test.

[4] = Solubility assessment: saturated solutions in SGF, FeSSIF and water, concentration by HPLC; conditions: thermodynamic from solid
Method: Form CS3 of ozanimod hydrochloride was suspended into SGF (Simulated gastric fluids, pH=1.8), FeSSIF (Fed state simulated intestinal fluids, pH=5.0) and water to obtain saturated solutions. After being equilibrated for 1 h, 4 h and 24 h, concentrations of the saturated solutions were measured by HPLC.

Hygroscopicity class according to the definition of hygroscopicity ([1]; Chinese Pharmacopoeia 2015 definition, 80% RH): hygroscopic
Weight Gain under 80% RH ([1]; hydrochloride): 2.50%
Weight Gain under 80% RH ([1]; listed as Form CS3, hydrochloride): 2.50%
Crystalline form change by XRPD after storage ([2]; 25° C./60% RH): No form change
Crystalline form change by XRPD after storage ([2]; 40° C./75% RH): No form change
MV (average particle size calculated by volume) ([3]; dispersion medium Isopar G, average of 3 runs): 131.8 μm
average particle size ([3]; unit not given): 131.8
D10 ([3]; volume distribution, Isopar G): 19.94 μm
D50 ([3]; volume distribution, Isopar G): 100.5 μm
D90 ([3]; volume distribution, Isopar G): 287.0 μm
solubility at 1 h ([4]; fed state simulated intestinal fluid (FeSSIF), FeSSIF pH=5.0, 1 h): 2100 µg/mL
solubility at 4 h ([4]; fed state simulated intestinal fluid (FeSSIF), FeSSIF pH=5.0, 4 h): 2100 µg/mL
solubility at 24 h ([4]; fed state simulated intestinal fluid (FeSSIF), FeSSIF pH=5.0, 24 h): 1800 µg/mL
solubility at 1 h ([4]; simulated gastric fluid (SGF), simulated gastric fluid, SGF pH=1.8, 1 h): 200 µg/mL
solubility at 4 h ([4]; simulated gastric fluid (SGF), simulated gastric fluid, SGF pH=1.8, 4 h): 200 µg/mL
solubility at 24 h ([4]; simulated gastric fluid (SGF), simulated gastric fluid, SGF pH=1.8, 24 h): 200 µg/mL
solubility at 1 h ([4]; water, H2O, 1 h): 1100 µg/mL
solubility at 4 h ([4]; water, H2O, 4 h): 1400 µg/mL
solubility at 24 h ([4]; water, H2O, 24 h): 1300 µg/mL
SMILES: CC(C)Oc1ccc(-c2nc(-c3cccc4c3CC[C@@H]4NCCO)no2)cc1C#N [Form CS3 of ozanimod hydrochloride, ozanimod hydrochloride]

From patent US10882830B2, “Crystal form of ozanimod hydrochloride and processes for preparation therefor” (Receptos LLC, priority 2016, dated 2021)
